Assay results taken from patent US9115092B2, “Substituted quinazoline and pyrido-pyrimidine derivatives” (Asana Biosciences, LLC, priority 2010, dated 2015).

Legend:
[1] = tested on: pS6RP(S235/236), PC3 cells; assay: In-cell Western assay, pS6RP(S235/236) in PC3 cells; assay type: cell-based, human
Experimental: Cells from human prostate cancer cell line PC3 (American Type Culture Collection (ATCC), Manassas, Va. 20108 USA) were seeded at an optimal density of 22,000 cell/well in 96-well plates containing Ham's F12K medium (90 μL) and incubated overnight. The compound dilutions were carried out in 100% DMSO followed by a dilution in the medium. Test compounds were added in serial dilutions to the wells and incubated for 2 h. The cells were washed and fixed with 4% paraformaldehyde. After incubation at room temperature for 1 h in the dark, blocking was done for 2 h at room temperature. Primary antibodies for phosphorylated (p) AKT(5473) (phosphorylated at serine 473), pAKT(T308) (phosphorylated at threonine 308) and for pS6RP(S235/236) (phosphorylated at serine 235/236) (commercially available from Cell Signaling Technology®, whose protocol was followed for the in-cell western assay, were diluted to the required concentration and added to the corresponding wells followed by overnight incubation at 4° C. Eu-labeled rabbit (PE) (Perkin-Elmer USA catalog #AD0106) secondary antibody was added and incubated for 2 h at room temperature. Delfia® enhancement solution (cat #1244-105, Perkin Elmer USA) was subsequently added to the plate before taking the reading at 615 nm with excitation wavelength of 340 nm, after which 0.5 μg/mL of Hoechst® 33258 dye (Catalog #86140-5, Sigma) was added to the plate and fluorescence emission was read at 460 nm with 355 nm excitation, to evaluate the correction factor. IC50 values were calculated using a sigmoidal dose-response curve fit in GraphPad Prism® v5 software.

mTOR kinase = biological target: T1, mTOR kinase (Homo sapiens, UniProt P42345); assay: mTOR kinase TR-FRET assay; assay type: biochemical; details: read-out: mTO R
T1 construct: purchased Millipore, USA
In short: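 TR-FRET read-out (340 nm excitation, 615/665 nm emission) of Thr389 phosphorylation of a ULight-labeled p70 S6K peptide (50 nM) by mTOR, 20 μM ATP, 60 min room temperature after 60 min compound preincubation. Buffer HEPES pH 7.5 with MnCl2, EGTA; IC50 by sigmoidal dose-response.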

PC3 cells = assay: XTT assay for cell viability, PC3 cells; assay type: cell-based, human
In short: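 PC3 cells seeded at 1000 cells/well, grown 24 h, then exposed to serial dilutions of compound for 96 h. Viability read by XTT dye at 37° C, absorbance 465 nm. EC50 from sigmoidal dose-response fit.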

[2] = biological target: T2, PI3Kα (wild-type), P110/P85α (Homo sapiens, UniProt P42336); assay: PI3 Kinase TR-FRET assay, PI3Kα (wild-type); assay type: biochemical
T2 construct: made in house; host or cells: SF9 insect cells
T2 sequence (P42336 whole entry): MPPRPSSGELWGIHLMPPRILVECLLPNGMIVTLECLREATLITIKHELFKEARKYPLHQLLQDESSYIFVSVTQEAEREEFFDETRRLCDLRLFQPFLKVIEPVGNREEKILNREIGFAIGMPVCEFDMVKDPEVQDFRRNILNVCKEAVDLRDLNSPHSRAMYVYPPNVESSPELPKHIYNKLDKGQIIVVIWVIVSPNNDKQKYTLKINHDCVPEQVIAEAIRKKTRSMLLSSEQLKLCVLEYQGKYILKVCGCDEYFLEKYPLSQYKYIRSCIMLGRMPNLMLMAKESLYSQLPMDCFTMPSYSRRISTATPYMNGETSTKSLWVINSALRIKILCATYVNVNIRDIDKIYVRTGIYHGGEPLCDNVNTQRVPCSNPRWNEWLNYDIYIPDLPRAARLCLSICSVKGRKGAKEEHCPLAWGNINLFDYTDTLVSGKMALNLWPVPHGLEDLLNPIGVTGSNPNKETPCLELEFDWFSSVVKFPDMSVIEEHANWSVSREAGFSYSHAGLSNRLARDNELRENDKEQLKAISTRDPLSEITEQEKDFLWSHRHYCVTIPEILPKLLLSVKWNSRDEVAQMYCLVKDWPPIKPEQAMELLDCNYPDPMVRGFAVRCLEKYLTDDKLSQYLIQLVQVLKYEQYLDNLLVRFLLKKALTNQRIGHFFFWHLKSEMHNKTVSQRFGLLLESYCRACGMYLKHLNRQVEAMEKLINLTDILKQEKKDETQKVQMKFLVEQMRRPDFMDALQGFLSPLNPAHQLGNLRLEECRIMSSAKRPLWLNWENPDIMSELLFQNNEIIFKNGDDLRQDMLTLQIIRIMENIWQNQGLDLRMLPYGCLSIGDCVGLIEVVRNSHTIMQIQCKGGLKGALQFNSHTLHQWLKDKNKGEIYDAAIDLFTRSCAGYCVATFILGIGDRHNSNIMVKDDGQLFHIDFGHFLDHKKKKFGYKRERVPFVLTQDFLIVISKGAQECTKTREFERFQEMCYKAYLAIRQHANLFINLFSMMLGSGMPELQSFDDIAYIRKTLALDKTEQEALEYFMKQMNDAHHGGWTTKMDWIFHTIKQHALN
T2 sequence (P27986 whole entry partner): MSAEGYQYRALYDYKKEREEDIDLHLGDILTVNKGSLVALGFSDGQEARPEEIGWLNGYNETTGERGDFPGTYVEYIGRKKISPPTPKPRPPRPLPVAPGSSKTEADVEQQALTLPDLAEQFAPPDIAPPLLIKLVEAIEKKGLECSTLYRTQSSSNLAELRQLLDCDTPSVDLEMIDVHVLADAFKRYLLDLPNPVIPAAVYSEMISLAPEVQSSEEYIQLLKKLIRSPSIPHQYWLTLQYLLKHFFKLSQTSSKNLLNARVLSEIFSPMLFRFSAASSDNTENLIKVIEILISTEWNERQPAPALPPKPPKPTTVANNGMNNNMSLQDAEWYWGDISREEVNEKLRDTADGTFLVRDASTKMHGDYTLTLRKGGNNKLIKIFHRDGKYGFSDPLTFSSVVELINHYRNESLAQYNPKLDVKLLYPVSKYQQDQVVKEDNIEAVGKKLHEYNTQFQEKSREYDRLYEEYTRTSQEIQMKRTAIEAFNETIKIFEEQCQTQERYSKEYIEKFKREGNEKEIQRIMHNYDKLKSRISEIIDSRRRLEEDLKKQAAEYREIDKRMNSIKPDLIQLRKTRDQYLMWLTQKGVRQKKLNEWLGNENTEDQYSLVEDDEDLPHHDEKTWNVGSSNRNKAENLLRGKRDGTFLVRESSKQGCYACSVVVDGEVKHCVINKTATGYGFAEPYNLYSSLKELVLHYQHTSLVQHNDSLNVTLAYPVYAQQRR
In short: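 TR-FRET read-out of PIP3 formation via biotin-PIP3 displacement (665/615 nm ratio) gave IC50 curves. Enzyme: 5 ng wild-type P110/P85α from Sf9 cells, 60 min RT with compound and PIP2 (MgCl2 40 mM, DTT 5 mM), then 30 min RT kinase reaction at 10 μM ATP and 10 μM PIP2.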

[3] = Homo sapiens, PC-3, In-cell Western
[4] = Homo sapiens, PC-3, cell viability

IC50 [1, 3] [nM] | IC50 (mTOR kinase) [nM] | IC50 (PC3 cells; [4]) [nM] | IC50 [2] [nM] | IC50 ([1]; In-cell Western) [nM] | IC50 (PC3 cells; cell viability) [nM] | SMILES
< 100 | < 50 | 100 to 500 | 50 to 200 |  |  | CN(C)C(=O)c1ccc(NC(=O)Nc2ccc(-c3nc(N4CCOCC4)c4cccc(-c5cccnc5F)c4n3)cc2)cc1 [Example 40, 4-(3-{4-[8-(2-fluoro-pyridin-3-yl)-4-morpholin-4-yl-quinazolin-2-yl]-phenyl}-ureido)-N,N-dimethyl-benzamide]
< 100 | 50 to 200 | 100 to 500 | < 50 |  |  | CN(C)C(=O)c1ccc(NC(=O)Nc2ccc(-c3nc(N4CCOCC4)c4ccc(-c5cccc(O)c5)cc4n3)cc2)cc1 [Example 41, 4-(3-{4-[7-(3-hydroxy-phenyl)-4-morpholin-4-yl-quinazolin-2-yl]-phenyl}-ureido)-N,N-dimethyl-benzamide]
< 100 | < 50 | 100 to 500 | < 50 |  |  | CN(C)C(=O)c1ccc(NC(=O)Nc2ccc(-c3nc(N4CCOCC4)c4ccc(-c5cnn(C)c5)cc4n3)cn2)cc1 [Example 55, N,N-dimethyl-4-(3-{5-[7-(1-methyl-1H-pyrazol-4-yl)-4-morpholin-4-yl-quinazolin-2-yl]-pyridin-2-yl}-ureido)-benzamide]
< 100 | < 50 | 100 to 500 | < 50 |  |  | Cc1ccncc1-c1ccc2c(N3CCOCC3)nc(-c3ccc(NC(=O)Nc4ccc(C(=O)N(C)C)cc4)cc3)nc2c1 [Example 62, N,N-dimethyl-4-(3-{4-[7-(4-methyl-pyridin-3-yl)-4-morpholin-4-yl-quinazolin-2-yl]-phenyl}-ureido)-benzamide]
100 to 500 | < 50 | 100 to 500 | < 50 |  |  | Cc1ccc(-c2ccc3c(N4CCOCC4)nc(-c4ccc(NC(=O)Nc5ccc(C(=O)N(C)CCN(C)C)cc5)cc4)nc3c2)o1 [Example 63, N-(2-dimethylamino-ethyl)-N-methyl-4-(3-{4-[7-(5-methyl-furan-2-yl)-4-morpholin-4-yl-quinazolin-2-yl]-phenyl}-ureido)-benzamide]
< 100 | < 50 | 100 to 500 | < 50 |  |  | CN(C)C(=O)c1ccc(NC(=O)Nc2ccc(-c3nc(N4CCOCC4)c4ccc(-c5ccncc5F)cc4n3)cc2)cc1 [Example 65, 4-(3-{4-[7-(3-fluoro-pyridin-4-yl)-4-morpholin-4-yl-quinazolin-2-yl]-phenyl}-ureido)-N,N-dimethyl-benzamide]
< 100 | < 50 | 100 to 500 | < 50 |  |  | CC(=O)Nc1cncc(-c2ccc3c(N4CCOCC4)nc(-c4ccc(NC(=O)Nc5ccc(C(=O)N(C)C)cc5)cc4)nc3c2)c1 [Example 66, 4-(3-{4-[7-(5-acetylamino-pyridin-3-yl)-4-morpholin-4-yl-quinazolin-2-yl]-phenyl}-ureido)-N,N-dimethyl-benzamide]
< 100 | < 50 | 100 to 500 | < 50 |  |  | CN1CCN(C(=O)c2ccc(NC(=O)Nc3ccc(-c4nc(N5CCOCC5)c5ccc(-c6ccncc6)cc5n4)cc3)cc2)CC1 [Example 69, 1-[4-(4-methyl-piperazine-1-carbonyl)-phenyl]-3-[4-(4-morpholin-4-yl-7-pyridin-4-yl-quinazolin-2-yl)-phenyl]-urea]
< 100 | < 50 | 100 to 500 | < 50 |  |  | CN(C)CCN(C)C(=O)c1ccc(NC(=O)Nc2ccc(-c3nc(N4CCOCC4)c4ccc(-c5ccncc5)cc4n3)cc2)cc1 [Example 72, N-(2-dimethylamino-ethyl)-N-methyl-4-{3-[4-(4-morpholin-4-yl-7-pyridin-4-yl-quinazolin-2-yl)-phenyl]-ureido}-benzamide]
 | < 50 |  | < 50 | < 100 | < 100 | CN(C)C(=O)c1ccc(NC(=O)Nc2ccc(-c3nc(N4CCOCC4)c4ccc(-c5ccco5)cc4n3)cc2)cc1 [Example 80, N,N-dimethyl-4-(3-{4-[7-(furan-2-yl)-4-morpholin-4-yl-quinazolin-2-yl]-phenyl}-ureido)-benzamide]
